The values below come from patent US11207299B2, “Biphenyl sulfonamide compounds for the treatment of type IV collagen diseases” (Travere Therapeutics, Inc., priority 2018, dated 2021).

Each structure is given as a SMILES string. “Also recorded” adds a separate entry of the source. Marks after values point to notes of the source that are not given here.

The subject of experiment [1] is murine models of Alport syndrome. The settings on record: cited from earlier work; for Glomerulosclerosis and interstitial fibrosis in murine models of Alport syndrome: literature (Dufek et al. 2016; Gross et al. 2003).
Experiment [2] deals with laminin α2 in stria of Alport mice. The experiment is described as follows: Immunofluorescence of laminin α2 in stria of Alport mice. Type of experiment: in vivo, mouse. As to conditions: losartan-treated Alport mice (10 mg/kg), early intervention study. As to the method: In the pilot study, designed to determine an optimal efficacious dose of sparsentan, Alport mice (3-4 per group) were dosed with vehicle (0.5% methylcellulose 4000 cps/0.25% Tween® 80 in distilled water) or sparsentan at 60 mg/kg or 200 mg/kg from 3 to 7 weeks of age for 28 days. Although 200 mg/kg sparsentan was efficacious in the pilot study, BUN levels were higher than those of Alport mice dosed with 60 mg/kg sparsentan (Table 1; FIG. 2A; FIG. 2B). This observation led to the selection of a 120 mg/kg dose of sparsentan to take forward into the early intervention study. During the pilot study, blood pressure (BP) was measured weekly using the CODA2 tail cuff system. […]
For the hearing study, wild-type or Alport mice were treated according to daily from 3-8.5 weeks of age by oral gavage with vehicle (0.5% methylcellulose 4000 cps/0.25% Tween® 80 in distilled water) or 120 mg/kg sparsentan or losartan at 20 mg/kg by oral gavage from 3-4 weeks of age (during weaning) and 10 mg/kg in drinking water from 4-7 weeks of age (n=5). The progression of Alport disease was assessed at 7 weeks of age by the amount of proteinuria (via urinalysis reagent strips—data not shown). […] Hearing ability and sensitivity to noise were assessed between 7 and 8 weeks of age by Auditory Brainstem Response (ABR), pre-noise exposure. […]

Experiment [3] relates to autosomal Alport mice (COL4A3^−/−). The experiment is described as follows: Early intervention study in Alport mice (treated from 3-7 weeks of age). It is filed as in vivo, mouse. The text has this:
(§1) Vehicle or sparsentan was given daily by oral gavage to autosomal Alport mice (COL4A3^−/−) on the 129/Sv background (male and female) in five separate studies: a pilot study, an early intervention study (treated from 3-7 weeks of age), a late intervention study (treated from 5-7 weeks of age after the onset of glomerular (GM) changes), a lifespan study, and a hearing study (FIG. 1). The early intervention, late intervention, lifespan, and hearing studies also included mice treated with a comparator, losartan, which was given orally at 3-4 weeks of age in the early intervention study, in drinking water at 4-7 weeks of age in the early intervention study, and in drinking water at 5-7 weeks in the late intervention study.
(§2) Efficacy renal endpoints included blood urea nitrogen (BUN), proteinuria (urine protein to creatinine ratio, or UP/C), glomerulosclerosis, tubulointerstitial fibrosis, leucocyte infiltration, and glomerular basement morphology (GBM) using transmission electron microscopy (TEM). Endpoints in the inner ear included auditory brain stem response (ABR) threshold as a measure of noise-induced hearing loss, strial capillary basement membrane thickness, and inner ear pathology by TEM.
In the early intervention study, wild-type and Alport mice were dosed daily by oral gavage with vehicle or sparsentan at 120 mg/kg from 3 to 7 weeks of age (7-8 mice per group), or with losartan at 20 mg/kg by oral gavage from 3-4 weeks of age (during weaning) and 10 mg/kg in drinking water from 4-7 weeks of age.
(§3) For the pilot, early intervention, late intervention, and lifespan studies, spot urine was sampled pre-study and weekly during treatment and analyzed for protein (UP) and creatinine (C) to determine proteinuria (UP/C). At the end of each study the animals were euthanized, blood samples were taken, BUN was measured from serum, and kidneys were harvested for structural and immuno-fluorescent measurements. Glomerulosclerosis was assessed by immunofluorescence (IF) using an antibody to fibronectin (FN). Visual counting of the number of sclerotic glomeruli as a proportion of the total number of glomeruli per slide was used to calculate the percentage of sclerotic glomeruli. Sections were co-stained with an anti-CD45 antibody to indicate leucocyte infiltration. Tubulointerstitial fibrosis was determined by IF of kidney sections using an antibody to collagen 1 (COL1). Tubulointerstitial fibrosis (TIF) scoring was conducted by visual assessment of the COL1 positive area as a percentage of the total cortical area and was performed blinded. The fibrosis scoring (“Fibrosis Score”) was categorized according to visual judgment of percentage of total cortical area, as: 0=<5%, 1=5-10%, 2=10-25%, 3=25-50%, 4=50-75%, or 5=75-100%. Ultrastructural changes in GBM and podocyte morphology were observed using transmission electron microscopy (TEM).

Experiment [4] has the same test system. As to the kind of experiment: Hearing study in Alport mice (ABR, noise exposure, strial capillary basement membrane TEM). It is filed as in vivo, mouse.
Description: as §1, §2
For the hearing study, wild-type or Alport mice were treated according to daily from 3-8.5 weeks of age by oral gavage with vehicle (0.5% methylcellulose 4000 cps/0.25% Tween® 80 in distilled water) or 120 mg/kg sparsentan or losartan at 20 mg/kg by oral gavage from 3-4 weeks of age (during weaning) and 10 mg/kg in drinking water from 4-7 weeks of age (n=5). The progression of Alport disease was assessed at 7 weeks of age by the amount of proteinuria (via urinalysis reagent strips—data not shown). Strial capillary basement membrane (SCBM) width was analyzed by transmission electron microscopy (TEM), and accumulation of extracellular matrix (ECM) in SCBM was determined by immunofluorescence (IF) microscopy using an antibody to laminin α2. Hearing ability and sensitivity to noise were assessed between 7 and 8 weeks of age by Auditory Brainstem Response (ABR), pre-noise exposure. A subset of each treatment group was then exposed to a metabolic noise stress for 10 hours. Mice receiving the noise treatment were randomly selected for overstimulation with a 106 dB sound pressure level (SPL), narrow band noise (8-16 kHz) for 10 hours, usually 10 PM to 8 AM. The noise exposure was conducted in a sound-isolation booth. A speaker was suspended from the ceiling. Wire cages with individual compartments were located midway between the floor and speaker. Mice were hydrated prior to placement in the cage and were provided free access to food. The noise exposure occurred at 8 weeks of age. The amount of hearing loss caused by the metabolic noise exposure was determined 5 days post-exposure.

Experiment [5] shares this test system. As to the kind of experiment: Late intervention study in Alport mice (treated from 5-7 weeks of age). Type of experiment: in vivo, mouse.
Description: as §1, §2
In the late intervention study, wild-type or Alport mice (8 mice per group) were dosed for 14 days according to the same methods used in the early intervention study but beginning at 5 weeks of age, i.e., dosed with vehicle, 120 mg/kg of sparsentan, or 10 mg/kg losartan starting at 5 weeks of age for 14 days. In this study, untreated Alport mice at 5 weeks of age were also used as baseline controls.
as §3
For a baseline comparison for late intervention, glomerulosclerosis and fibrosis were determined in kidney samples taken from 5-week-old untreated Alport mice.

For experiment [6] the test system is unchanged. The experiment is described as follows: Lifespan study in Alport mice. The settings on record: dosing as in early intervention study, continued until 10% loss of peak body weight; P<0.05. Type of experiment: in vivo, mouse.
Description: as §1
In the lifespan study, Alport mice (n=10) were dosed using the same methodology as in the early intervention study, except that dosing was continued until mice had lost 10% of their peak body weight, after which they were euthanized.
For the pilot, early intervention, late intervention, and lifespan studies, spot urine was sampled pre-study and weekly during treatment and analyzed for protein (UP) and creatinine (C) to determine proteinuria (UP/C). At the end of each study the animals were euthanized, blood samples were taken, BUN was measured from serum, and kidneys were harvested for structural and immuno-fluorescent measurements. Glomerulosclerosis was assessed by immunofluorescence (IF) using an antibody to fibronectin (FN). Visual counting of the number of sclerotic glomeruli as a proportion of the total number of glomeruli per slide was used to calculate the percentage of sclerotic glomeruli. Sections were co-stained with an anti-CD45 antibody to indicate leucocyte infiltration. Tubulointerstitial fibrosis was determined by IF of kidney sections using an antibody to collagen 1 (COL1). Tubulointerstitial fibrosis (TIF) scoring was conducted by visual assessment of the COL1 positive area as a percentage of the total cortical area and was performed blinded. […]

The mark [7] stands for this setting: Alport mice, losartan 20/10 mg/kg, at 7 wk of age, mean ± SD.
Setting [8] is: Alport mice late intervention, losartan 10 mg/kg, mean ± SD.

Turning to `Cc1cc2c(cc1CC(=O)c1sccc1S(=O)(=O)Nc1onc(C)c1Cl)OCO2` [sitaxentan], the “Glomerulosclerosis and interstitial fibrosis in murine models of Alport syndrome” value in experiment [1] was “ameliorate”. The “Basement membrane in the cochlea of the ear in Alport mice” value in experiment [1] (literature (Meehan et al. 2016)) is on record as “protect”.

`CCOC(=O)[C@H](CCc1ccccc1)N[C@@H](C)C(=O)N1[C@H](C(=O)O)C[C@@H]2CCC[C@@H]21` [ramipril]: the “Glomerulosclerosis and interstitial fibrosis in murine models of Alport syndrome” value in experiment [1] is “ameliorate”.

Regarding `CCCCc1nc(Cl)c(CO)n1Cc1ccc(-c2ccccc2-c2nnn[nH]2)cc1` [losartan, Losartan, reference compound], the “Accumulation of laminin α2 in stria” value in experiment [2] is “did not appear different from vehicle-treated Alport mice”. Further, the UP/C in experiment [3] (Alport mice, losartan 20/10 mg/kg from 3 wk, at 4 wk of age, mean ± SD, n = 8) is listed as 0.6 ± 1.3 mg/mg; in experiment [3] (Alport mice, losartan 20/10 mg/kg, at 5 wk of age, mean ± SD), 6.7 ± 4.0 mg/mg; in experiment [3] (Alport mice, losartan 20/10 mg/kg, at 6 wk of age, mean ± SD) it was 11.2 ± 5.7 mg/mg; in experiment [3] (setting [7]), 11.5 ± 7.0 mg/mg; in experiment [5] (Alport mice late intervention, losartan 10 mg/kg for 14 days from 5 wk of age, mean ± SD, n = 8) it was 18.1 ± 4.6 mg/mg. Further, the BUN in experiment [3] (setting [7]) came to 18.2 ± 3.5 mg/dL; in experiment [5] (setting [8]), 15.5 ± 3.4 mg/dL. In addition, the “Sclerotic Glomeruli (%)” value in experiment [3] (setting [7]) came to 1.7 ± 3.3 %. Also, in experiment [3] (Alport mice, losartan 20/10 mg/kg, at 7 wk, score 0=<5% to 5=75-100% COL1 area, mean ± SD), the “Fibrosis Score” value came out at 0.0 ± 0.0. Also, in experiment [3] (sparsentan 120 mg/kg 28 days or losartan 20 mg/kg 7 days then 10 mg/kg 21 days, from 3 weeks of age), the “Development of nephropathy in Alport mice” value is reported as “prevented”. Moreover, the “UP/C, BUN, glomerulosclerosis, and fibrosis vs. vehicle-treated Alport mice” value in experiment [3] (sparsentan 120 mg/kg or losartan 20/10 mg/kg from 3 weeks of age, P<0.05) is reported as “significant attenuation”. Further, the TIF or glomerulosclerosis entry in experiment [3] (sparsentan- or losartan-treated Alport mice, early intervention) is listed as “little to no”. Besides, the “Hearing ability before noise exposure (ABR)” value in experiment [4] (7-8-week-old mice, sparsentan 120 mg/kg or losartan 20/10 mg/kg) was “did not differ significantly”. For the same compound, the “Increase in strial capillary basement membrane width observed in vehicle-treated Alport mice” value in experiment [4] (Alport mice treated 3-8.5 weeks of age with sparsentan or losartan) is given as “prevented”. Further, in experiment [4] (Alport mice, losartan 20/10 mg/kg from 3 weeks of age, TEM, n=5), the “mean SCBM width±SD” value stood at 55.0±5.9 nm. Also, the “Hearing loss after noise exposure vs vehicle-treated Alport mice” value in experiment [4] (any frequency tested, losartan 20/10 mg/kg) is given as “no significant effect; also recorded: no significant difference”. In addition, the “Stria vascularis pathology by TEM” value in experiment [4] (treated Alport mice, FIGS. 14-23) is on record as “variable pathology”. Also, the “GS (% Sclerotic glomeruli)” value in experiment [5] (setting [8]) is recorded as 16.0 ± 11.9*^$ %. For the same compound, the TIF in experiment [5] (Alport mice late intervention, losartan 10 mg/kg, tubulointerstitial fibrosis score, mean ± SD) was determined as 1.0 ± 1.2. For the same compound, in experiment [5] (losartan 10 mg/kg, late intervention), the “UP/C and fibrosis vs. vehicle-treated Alport mice” value was “not significant”. Besides, the “Attenuation of BUN and glomerulosclerosis vs. vehicle-treated Alport mice” value in experiment [5] (losartan 10 mg/kg, late intervention, P<0.05) was “significant”. For the same compound, the “Development of fibrosis, CD45^+ leucocyte infiltration, and glomerulosclerosis” value in experiment [5] (sparsentan 120 mg/kg or losartan 10 mg/kg, 5-7 weeks of age) is recorded as “attenuated; also recorded: prevented”. Moreover, the “Lifespan compared to vehicle-treated Alport mice” value in experiment [6] is “significantly longer; also recorded: significantly greater”.
